Source: patent publication US20250115669A1, “FGFR1/KLB Targeting Agonistic Antigen-Binding Proteins and Conjugates Thereof with GLP-1R Agonistic Peptides” (SANOFI, priority 2020, published 2025)
Bridge positions count the residues as written; N and C are the ends. Ends that are not written are not given here. Peptide text beside a SMILES is read from it.

Key:
[1] = target: T1, human glucagon (GCG) receptor (Homo sapiens, UniProt P47871); assay: HTRF cAMP assay in HEK-293 cells expressing human glucagon receptor; format: cell-based; conditions: HEK-293 cells; read-out: HTRF cAMP EC50 Human GCGR
T1 construct: expressed in transfected cells; host or cells: PSC-HEK-293
Description: (§1) Each vial contained 1.8 ml cells. The vials were slowly frozen to −80° C. in isopropanol, and then transferred in liquid nitrogen for storage.
(§2) Cells were resuspended in assay buffer (cell buffer plus 2 mM IBMX) and adjusted to a cell density of 1 million cells/ml.
(§3) For measurement of cAMP generation, 5 μl cells (final 5000 cells/well) and 5 μl of test compound were added to a 384-well plate, followed by incubation for 30 min at room temperature.
(§4) The cAMP generated was determined using a kit from Cisbio Corp. based on HTRF (Homogenous Time Resolved Fluorescence). The cAMP assay was performed according to manufacturer's instructions (Cisbio).

human GIP receptor = target: T2, human GIP receptor (Homo sapiens, UniProt P48546); assay: HTRF cAMP assay in HEK-293 cells expressing human GIP receptor; format: cell-based; conditions: HEK-293 cells; read-out: HTRF cAMP EC50 Human GIPR
T2 construct: expressed in transfected cells; host or cells: PSC-HEK-293
T2 sequence (P48546 22-466): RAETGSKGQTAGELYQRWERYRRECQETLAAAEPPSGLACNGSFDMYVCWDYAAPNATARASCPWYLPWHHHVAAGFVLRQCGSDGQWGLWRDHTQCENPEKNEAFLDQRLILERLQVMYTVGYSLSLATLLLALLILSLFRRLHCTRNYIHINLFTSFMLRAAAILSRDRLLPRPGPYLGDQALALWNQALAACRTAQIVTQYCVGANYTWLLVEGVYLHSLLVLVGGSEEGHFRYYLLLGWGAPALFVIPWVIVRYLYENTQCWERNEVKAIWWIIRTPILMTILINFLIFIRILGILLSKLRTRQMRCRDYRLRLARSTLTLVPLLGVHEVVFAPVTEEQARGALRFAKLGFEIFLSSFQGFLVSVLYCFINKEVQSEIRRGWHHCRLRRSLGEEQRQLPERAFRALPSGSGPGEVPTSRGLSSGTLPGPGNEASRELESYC
Description: as §1, §2, §3, §4

T1 sequence (P47871 26-477): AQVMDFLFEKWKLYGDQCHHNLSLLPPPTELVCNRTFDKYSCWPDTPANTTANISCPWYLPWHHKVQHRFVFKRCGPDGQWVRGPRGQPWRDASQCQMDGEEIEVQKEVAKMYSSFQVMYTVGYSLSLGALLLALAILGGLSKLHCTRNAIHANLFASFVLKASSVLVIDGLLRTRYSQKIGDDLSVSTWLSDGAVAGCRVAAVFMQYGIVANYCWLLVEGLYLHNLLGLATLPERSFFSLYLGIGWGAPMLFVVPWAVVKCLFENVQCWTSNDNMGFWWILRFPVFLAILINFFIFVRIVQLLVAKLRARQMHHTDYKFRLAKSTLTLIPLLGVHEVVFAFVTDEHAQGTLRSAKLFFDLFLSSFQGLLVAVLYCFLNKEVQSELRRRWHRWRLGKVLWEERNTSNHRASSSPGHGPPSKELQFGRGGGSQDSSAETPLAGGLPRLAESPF

Row | EC50 [1] | EC50 (human GIP receptor) | Compound
1 | > 10 nM | 0.257 nM | HGEGTFTSDLSILCEKRAVHEFIEWLKAGGPSSGKPPPKPGC-NH2 (disulfide 14-42) [Ab P034]
2 | > 10 nM | 1.37 nM | CC[C@H](C)[C@H](NC(=O)[C@H](Cc1ccccc1)NC(=O)[C@H](CCC(=O)O)NC(=O)[C@H](Cc1c[nH]cn1)NC(=O)[C@@H](NC(=O)[C@H](C)NC(=O)[C@H](CCCNC(=N)N)NC(=O)[C@H](CCCCN)NC(=O)[C@H](CCC(=O)O)NC(=O)[C@H](CC(C)C)NC(=O)[C@H](CC(C)C)NC(=O)[C@H](CCCCN)NC(=O)[C@H](CO)NC(=O)[C@H](CC(C)C)NC(=O)[C@H](CC(=O)O)NC(=O)[C@H](CO)NC(=O)[C@@H](NC(=O)[C@H](Cc1ccccc1)NC(=O)[C@@H](NC(=O)CNC(=O)[C@H](CCC(=O)O)NC(=O)CNC(=O)[C@@H](N)Cc1c[nH]cn1)[C@@H](C)O)[C@@H](C)O)C(C)C)C(=O)N[C@@H](CCC(=O)O)C(=O)N[C@@H](Cc1c[nH]c2ccccc12)C(=O)N[C@@H](CC(C)C)C(=O)N[C@@H](CCCCN)C(=O)N[C@@H](C)C(=O)NCC(=O)NCC(=O)N1CCC[C@H]1C(=O)N[C@@H](CO)C(=O)N[C@@H](CO)C(=O)NCC(=O)N[C@@H](CCCCN)C(=O)N1CCC[C@H]1C(=O)N1CCC[C@H]1C(=O)N1CCC[C@H]1C(=O)N[C@@H](CCCCN)C(N)=O [Ab P029] (H-HGEGTFTSDLSKLLEKRAVHEFIEWLKAGGPSSGKPPPK-NH2; N-terminus assumed)

Further lines, the compound ahead of its results:

Row | Compound | EC50 [1] | EC50 (human GIP receptor)
3 | CC[C@H](C)[C@H](NC(=O)[C@H](CC(C)C)NC(=O)[C@H](Cc1c[nH]c2ccccc12)NC(=O)[C@H](CCC(=O)O)NC(=O)[C@@H](NC(=O)[C@H](Cc1ccccc1)NC(=O)[C@H](CCC(=O)O)NC(=O)[C@H](Cc1c[nH]cn1)NC(=O)[C@@H](NC(=O)[C@H](C)NC(=O)[C@H](CCCNC(=N)N)NC(=O)[C@H](CCCCN)NC(=O)[C@H](CCC(=O)O)NC(=O)[C@H](CC(C)C)NC(=O)[C@H](CC(C)C)NC(=O)[C@H](CCCCN)NC(=O)[C@H](CO)NC(=O)[C@H](CC(C)C)NC(=O)[C@H](CC(=O)O)NC(=O)[C@H](CO)NC(=O)[C@@H](NC(=O)[C@H](Cc1ccccc1)NC(=O)[C@@H](NC(=O)CNC(=O)[C@H](CCC(=O)O)NC(=O)CNC(=O)[C@@H](N)Cc1c[nH]cn1)[C@@H](C)O)[C@@H](C)O)C(C)C)[C@@H](C)CC)C(=O)N[C@@H](C)C(=O)NCC(=O)NCC(=O)N1CCC[C@H]1C(=O)N[C@@H](CO)C(=O)N[C@@H](CO)C(=O)NCC(=O)N[C@@H](CCCCN)C(=O)N1CCC[C@H]1C(=O)N1CCC[C@H]1C(=O)N1CCC[C@H]1C(=O)N[C@@H](CCCCN)C(N)=O [Ab P027] (H-HGEGTFTSDLSKLLEKRAVHEFIEWLIAGGPSSGKPPPK-NH2; N-terminus assumed) | > 10 nM | 0.225 nM
4 | CC[C@H](C)[C@H](NC(=O)[C@H](CC(C)C)NC(=O)[C@H](Cc1c[nH]c2ccccc12)NC(=O)[C@H](CCC(=O)O)NC(=O)[C@@H](NC(=O)[C@H](Cc1ccccc1)NC(=O)[C@H](CCC(=O)O)NC(=O)[C@H](Cc1c[nH]cn1)NC(=O)[C@H](CCC(N)=O)NC(=O)[C@H](C)NC(=O)[C@H](CCCNC(=N)N)NC(=O)[C@H](CCCCN)NC(=O)[C@H](CCC(=O)O)NC(=O)[C@H](CC(C)C)NC(=O)[C@H](CC(C)C)NC(=O)[C@H](CCCCN)NC(=O)[C@H](CO)NC(=O)[C@H](CC(C)C)NC(=O)[C@H](CC(=O)O)NC(=O)[C@H](CO)NC(=O)[C@@H](NC(=O)[C@H](Cc1ccccc1)NC(=O)[C@@H](NC(=O)CNC(=O)[C@H](CCC(=O)O)NC(=O)CNC(=O)[C@@H](N)Cc1c[nH]cn1)[C@@H](C)O)[C@@H](C)O)[C@@H](C)CC)C(=O)N[C@@H](C)C(=O)NCC(=O)NCC(=O)N1CCC[C@H]1C(=O)N[C@@H](CO)C(=O)N[C@@H](CO)C(=O)NCC(=O)N[C@@H](CCCCN)C(=O)N1CCC[C@H]1C(=O)N1CCC[C@H]1C(=O)N1CCC[C@H]1C(=O)N[C@@H](CCCCN)C(N)=O [Ab P028] (H-HGEGTFTSDLSKLLEKRAQHEFIEWLIAGGPSSGKPPPK-NH2; N-terminus assumed) | > 10 nM | 0.39 nM
5 | CC[C@H](C)[C@H](NC(=O)[C@H](Cc1ccccc1)NC(=O)[C@H](CCC(=O)O)NC(=O)[C@H](Cc1c[nH]cn1)NC(=O)[C@H](CCC(N)=O)NC(=O)[C@H](C)NC(=O)[C@H](CCCNC(=N)N)NC(=O)[C@H](CCCCN)NC(=O)[C@H](CCC(=O)O)NC(=O)[C@H](CC(C)C)NC(=O)[C@H](CC(C)C)NC(=O)[C@H](CCCCN)NC(=O)[C@H](CO)NC(=O)[C@H](CC(C)C)NC(=O)[C@H](CC(=O)O)NC(=O)[C@H](CO)NC(=O)[C@@H](NC(=O)[C@H](Cc1ccccc1)NC(=O)[C@@H](NC(=O)CNC(=O)[C@H](CCC(=O)O)NC(=O)CNC(=O)[C@@H](N)Cc1c[nH]cn1)[C@@H](C)O)[C@@H](C)O)C(=O)N[C@@H](CCC(=O)O)C(=O)N[C@@H](Cc1c[nH]c2ccccc12)C(=O)N[C@@H](CC(C)C)C(=O)N[C@@H](CCCCN)C(=O)N[C@@H](C)C(=O)NCC(=O)NCC(=O)N1CCC[C@H]1C(=O)N[C@@H](CO)C(=O)N[C@@H](CO)C(=O)NCC(=O)N[C@@H](CCCCN)C(=O)N1CCC[C@H]1C(=O)N1CCC[C@H]1C(=O)N1CCC[C@H]1C(=O)N[C@@H](CCCCN)C(N)=O [Ab P030] (H-HGEGTFTSDLSKLLEKRAQHEFIEWLKAGGPSSGKPPPK-NH2; N-terminus assumed) | > 10 nM | 2.76 nM
6 | HGEGTFTSDLSILCEKRAVHEFIEWLIAGGPSSGKPPPKPGC-NH2 (disulfide 14-42) [Ab P033] | > 10 nM | 0.024 nM
7 | CC[C@H](C)[C@H](NC(=O)[C@H](CC(C)C)NC(=O)[C@H](Cc1c[nH]c2ccccc12)NC(=O)[C@H](CCC(=O)O)NC(=O)[C@@H](NC(=O)[C@H](Cc1ccccc1)NC(=O)[C@H](CCC(=O)O)NC(=O)[C@H](Cc1c[nH]cn1)NC(=O)[C@H](CCC(N)=O)NC(=O)[C@H](C)NC(=O)[C@H](CCCNC(=N)N)NC(=O)[C@H](CCCCN)NC(=O)[C@H](CCC(=O)O)NC(=O)[C@H](CC(C)C)NC(=O)[C@H](CC(C)C)NC(=O)[C@H](CCC(=O)O)NC(=O)[C@H](CO)NC(=O)[C@H](CC(C)C)NC(=O)[C@H](CC(=O)O)NC(=O)[C@H](CO)NC(=O)[C@@H](NC(=O)[C@H](Cc1ccccc1)NC(=O)[C@@H](NC(=O)CNC(=O)[C@H](CCC(=O)O)NC(=O)CNC(=O)[C@@H](N)Cc1c[nH]cn1)[C@@H](C)O)[C@@H](C)O)[C@@H](C)CC)C(=O)N[C@@H](C)C(=O)NCC(=O)NCC(=O)N1CCC[C@H]1C(=O)N[C@@H](CO)C(=O)N[C@@H](CO)C(=O)NCC(=O)N[C@@H](CCCCN)C(=O)N1CCC[C@H]1C(=O)N1CCC[C@H]1C(=O)N1CCC[C@H]1C(=O)N[C@@H](CCCCN)C(N)=O [Ab P031] (H-HGEGTFTSDLSELLEKRAQHEFIEWLIAGGPSSGKPPPK-NH2; N-terminus assumed) | > 10 nM | 0.271 nM
